Reference: patent publication US4182774A, “Method of inhibiting blood platelet aggregation with 2-amino-3-(5- and 6-)benzoylphenylacetic acids, esters and metal salts thereof” (A. H. Robins Company, Incorporated, priority 1978, dated 1980)

Tests used:
[1] = system: Evans Blue-Carrageenan Pleural Effusion; test: Modification of the Evans Blue-Carrageenan Pleural Effusion Assay (anti-inflammatory activity); format: in vivo; conditions: relative to 4-amino-3-benzoylphenylacetic acid; method of Sancilio
Experimental: The prior art (South African Patent 68/4682) discloses 4-amino-3-benzoylphenylacetic acid, m.p. 135°-7° C. The compound was prepared and tested for anti-inflammatory activity by the method of Sancilio referred to immediately hereinabove.

[2] = system: collagen-induced platelet aggregation in rabbit plasma; test: Inhibition of collagen-induced platelet aggregation in rabbit plasma; format: cell-based; conditions: Table III
Excerpt: ^1 Concentration required to inhibit aggregation by 50%.

[3] = system: Collagen-Induced Platelet Aggregation; test: Collagen-induced platelet aggregation after oral dosing of rats (platelet rich plasma 2 h after dose); format: in vivo, rat
Experimental: The procedure used is essentially that as described by Born, J. of Phys. […] Rats were orally administered test drugs and after two hours the rats were bled and platelet rich plasma obtained. Collagen was added to the platelet rich plasma to induce platelet aggregation and comparisons were made between control and treated samples.

[4] = system: Adenosine Diphosphate-Induced Platelet Aggregation-Rabbit Plasma; test: In vitro inhibition of adenosine diphosphate-induced platelet aggregation in rabbit plasma; format: cell-based; conditions: Table IV, ADP
Excerpt: Effects on Adenosine Diphosphate-Induced
Platelet Aggregation-Rabbit Plasma

[5] = Table IV comment
[6] = Oryctolagus cuniculus, Platelet, 1.0 mM, read-out: Percent Inhibition
[7] = Table I, 10.00 mg/kg PO, rats, collagen
[8] = Table I, 100.00 mg/kg PO, rats, collagen
[9] = Table I, 31.60 mg/kg PO, rats, collagen

Nc1cccc(C(=O)c2ccccc2)c1CC(=O)O [2-amino-6-benzoylphenylacetic acid]
Anti-inflammatory activity, times the activity of the prior art 4-amino-3-benzoylphenylacetic acid [1]: ~3 times

CC(=O)Oc1ccccc1C(=O)O [Acetylsalicylic Acid, reference compound]
Estimated IC50 (concentration required to inhibit aggregation by 50%) [2]: 23 µM
Percent Reduction in Aggregation ([3]; Table II, 316.0 mg/kg PO, 2 rats): -74%

Nc1ncnc2c1ncn2[C@@H]1O[C@H](CO)[C@@H](O)[C@H]1O [Adenosine]
inhibition at 1000 µM [4, 6]: 84%

Nc1c(CC(=O)O)cccc1C(=O)c1ccccc1 [Example 3, 2-Amino-3-benzoylphenylacetic Acid]
Anti-inflammatory activity, times the activity of the prior art 4-amino-3-benzoylphenylacetic acid [1]: about 39 times

Nc1c(CC(=O)O)cc(Cl)cc1C(=O)c1ccccc1 [Example 6, 2-Amino-3-benzoyl-5-chlorophenylacetic Acid Hemihydrate]
Percent Reduction in Aggregation [3, 7]: -36%
Percent Reduction in Aggregation [3, 8]: -76%

Nc1c(CC(=O)O)cccc1C(=O)c1ccccc1 [Example 8, Sodium 2-amino-3-benzoylphenylacetate Dihydrate]
inhibition at 100 µM ([4]; Oryctolagus cuniculus, Platelet, 0.1 mM, read-out: Percent Inhibition): 4%
inhibition at 1000 µM [4, 6]: 8%
inhibition at 10000 µM ([4]; Oryctolagus cuniculus, Platelet, 10.0 mM, read-out: Percent Inhibition): 82%
Estimated IC50 (Comment) [4]: 4000 µM
Estimated IC50 (concentration required to inhibit aggregation by 50%) [2]: 0.2 µM
Estimated IC50 (concentration required to inhibit aggregation by 50%), value in parentheses [2]: 0.2 µM
Percent Reduction in Aggregation ([3]; Table I, 8.00 mg/kg PO, rats, collagen): -63%
Percent Reduction in Aggregation ([3]; Table II, 8.0 mg/kg PO, 3 rats): -63%

CCOC(=O)Cc1cccc(C(=O)c2ccccc2)c1N [Example 9, Ethyl 2-amino-3-benzoylphenylacetate]
Percent Reduction in Aggregation [3, 7]: -49%
Percent Reduction in Aggregation [3, 8]: -75%

CN(C)c1c(CC(=O)O)cccc1C(=O)c1ccccc1 [Example 12, 2-Dimethylamino-3-benzoylphenylacetic Acid]
Percent Reduction in Aggregation [3, 9]: -56%

Nc1c(CC(=O)O)cccc1C(=O)c1ccc(Cl)cc1 [Example 14, Sodium 2-amino-3-(4-chlorobenzoyl)phenylacetate Hydrate]
Percent Reduction in Aggregation [3, 9]: -27%
Percent Reduction in Aggregation [3, 8]: -65%

CC(C(=O)[O-])c1cccc(C(=O)c2ccccc2)c1N.O.[Na+] (stereo not drawn) [Example 15, Sodium 2-amino-3-benzoyl-α-methylphenylacetate Hydrate]
Percent Reduction in Aggregation ([3]; Table I, 3.00 mg/kg PO, rats, collagen): -56%
Percent Reduction in Aggregation [3, 9]: -48%
Percent Reduction in Aggregation [3, 8]: -76%

Nc1c(CC(=O)O)cccc1C(=O)c1ccccc1 [Example 16, Potassium 2-amino-3-benzoylphenylacetate Hydrate]
Percent Reduction in Aggregation ([3]; Table I, 0.20 mg/kg PO, rats, collagen, Hydrate, 0.2 mg/kg): -56%

COc1ccc(C(=O)c2cccc(CC(=O)O)c2N)cc1 [Example 24, 2-Amino-3-(4-methoxybenzoyl)phenylacetic Acid]
Percent Reduction in Aggregation ([3]; Table I, 0.00063 mg/kg PO, rats, collagen): -73%
Percent Reduction in Aggregation ([3]; Table I, 4.00 mg/kg PO, rats, collagen): -88%
Percent Reduction in Aggregation ([3]; Table I, 25.00 mg/kg PO, rats, collagen): -71%
Percent Reduction in Aggregation [3, 8]: -81%

Nc1c(CC(=O)O)cccc1C(=O)c1ccccc1 [Example 25, Magnesium 2-amino-3-benzoylphenylacetate Trihydrate]
Percent Reduction in Aggregation ([3]; Table I, 0.20 mg/kg PO, rats, collagen, Trihydrate, 0.2 mg/kg): -25%

Nc1c(CC(=O)O)cccc1C(=O)c1ccccc1 [Example 27, Sodium 2-Amino-3-benzoylphenylacetate Hydrate]
Percent Reduction in Aggregation ([3]; Table I, 0.00032 mg/kg PO, rats, collagen): -76%
Percent Reduction in Aggregation ([3]; Table I, 1.30 mg/kg PO, rats, collagen): -44%
Percent Reduction in Aggregation ([3]; Table I, 5.10 mg/kg PO, rats, collagen): -68%
Percent Reduction in Aggregation [3, 8]: -77%

O=C(O)c1ccccc1Nc1cccc(C(F)(F)F)c1 [Flufenamic Acid]
Estimated IC50 (concentration required to inhibit aggregation by 50%) [2]: 2 µM

CCCCC1C(=O)N(c2ccccc2)N(c2ccccc2)C1=O [Phenylbutazone]
inhibition at 400 µM ([4]; Oryctolagus cuniculus, Platelet, 0.4 mM, read-out: Percent Inhibition): 3%
inhibition at 800 µM ([4]; Oryctolagus cuniculus, Platelet, 0.8 mM, read-out: Percent Inhibition): 2%
Estimated IC50 (concentration required to inhibit aggregation by 50%) [2]: 150 µM
Percent Reduction in Aggregation ([3]; Table II, 50.0 mg/kg PO, 2 rats): -74%

O=C(O)c1ccccc1O [Salicyclic Acid]
Percent Inhibition ([4]; 0.05 mM): 7%
Percent Inhibition ([4]; 0.50 mM): 7%
Percent Inhibition ([4]; 1.0 mM): 12%
Percent Inhibition ([4]; 10.0 mM): 20%
Comment: solubility precludes higher testing [5]: precludes higher

Nc1c(CC(=O)[O-])cccc1C(=O)c1ccccc1.[Na+] [sodium 2-amino-3-benzoylphenylacetate]
Anti-inflammatory activity, times the activity of the prior art 4-amino-3-benzoylphenylacetic acid [1]: ~48 times
